The values below come from ChEMBL document CHEMBL2346504, “Olive secoiridoids and semisynthetic bioisostere analogues for the control of metastatic breast cancer” (Bioorg Med Chem, 2013).

Active and inactive are the calls of the source. The rule behind the calls is not given here.

The subject of data set [1] is MDA-MB-231. In words: Cytotoxicity against human MDA-MB-231 cells after 24 hrs by MTT assay. The following applies: MDA-MB-231, 24 h. (In general: Tetrazolium dyes change colour on reduction, which living cells bring about.)
The subject of data set [2] is MDA-MB-231. In words: Antiinvasive activity against human MDA-MB-231 cells at 10 to 20 uM after 24 hrs by Cultrex BME assay. Format: functional, cell-based.
For data set [3], the system named is MDA-MB-231. In words: Antimigratory activity against human MDA-MB-231 cells after 24 hrs by wound healing assay. The following applies: MDA-MB-231, 24 h.
For data set [4], the system named is MCF-10A. Briefly: Cytotoxicity against human MCF10A cells at IC50 in MDA-MB-231 MTT assay after 24 hrs by MTT assay. Format: cell-based.
Data set [5] relates to MCF-10A. In words: Cytotoxicity against human MCF10A cells at IC50 in wound healing assay after 24 hrs by MTT assay. Format: cell-based.
In data set [6] the test system is MDA-MB-231. Briefly: Antimigratory activity against human MDA-MB-231 cells at 25 uM after 24 hrs by wound healing assay. Format: functional. The following applies: for inhibition at 25 µM: MDA-MB-231, 24 h.
Data set [7] concerns MDA-MB-231. In words: Antiinvasive activity against human MDA-MB-231 cells assessed as cell invasion at 20 uM after 24 hrs by Cultrex BME assay. It counts as functional.
The test system of data set [8] is MDA-MB-231. Briefly: Antiinvasive activity against human MDA-MB-231 cells assessed as cell invasion at 10 uM after 24 hrs by Cultrex BME assay. Format: functional.
The target of data set [9] is T1, Hepatocyte growth factor receptor (Homo sapiens, UniProt P08581). Particulars: 25 to 100 nM.
T1 sequence (P08581 whole entry): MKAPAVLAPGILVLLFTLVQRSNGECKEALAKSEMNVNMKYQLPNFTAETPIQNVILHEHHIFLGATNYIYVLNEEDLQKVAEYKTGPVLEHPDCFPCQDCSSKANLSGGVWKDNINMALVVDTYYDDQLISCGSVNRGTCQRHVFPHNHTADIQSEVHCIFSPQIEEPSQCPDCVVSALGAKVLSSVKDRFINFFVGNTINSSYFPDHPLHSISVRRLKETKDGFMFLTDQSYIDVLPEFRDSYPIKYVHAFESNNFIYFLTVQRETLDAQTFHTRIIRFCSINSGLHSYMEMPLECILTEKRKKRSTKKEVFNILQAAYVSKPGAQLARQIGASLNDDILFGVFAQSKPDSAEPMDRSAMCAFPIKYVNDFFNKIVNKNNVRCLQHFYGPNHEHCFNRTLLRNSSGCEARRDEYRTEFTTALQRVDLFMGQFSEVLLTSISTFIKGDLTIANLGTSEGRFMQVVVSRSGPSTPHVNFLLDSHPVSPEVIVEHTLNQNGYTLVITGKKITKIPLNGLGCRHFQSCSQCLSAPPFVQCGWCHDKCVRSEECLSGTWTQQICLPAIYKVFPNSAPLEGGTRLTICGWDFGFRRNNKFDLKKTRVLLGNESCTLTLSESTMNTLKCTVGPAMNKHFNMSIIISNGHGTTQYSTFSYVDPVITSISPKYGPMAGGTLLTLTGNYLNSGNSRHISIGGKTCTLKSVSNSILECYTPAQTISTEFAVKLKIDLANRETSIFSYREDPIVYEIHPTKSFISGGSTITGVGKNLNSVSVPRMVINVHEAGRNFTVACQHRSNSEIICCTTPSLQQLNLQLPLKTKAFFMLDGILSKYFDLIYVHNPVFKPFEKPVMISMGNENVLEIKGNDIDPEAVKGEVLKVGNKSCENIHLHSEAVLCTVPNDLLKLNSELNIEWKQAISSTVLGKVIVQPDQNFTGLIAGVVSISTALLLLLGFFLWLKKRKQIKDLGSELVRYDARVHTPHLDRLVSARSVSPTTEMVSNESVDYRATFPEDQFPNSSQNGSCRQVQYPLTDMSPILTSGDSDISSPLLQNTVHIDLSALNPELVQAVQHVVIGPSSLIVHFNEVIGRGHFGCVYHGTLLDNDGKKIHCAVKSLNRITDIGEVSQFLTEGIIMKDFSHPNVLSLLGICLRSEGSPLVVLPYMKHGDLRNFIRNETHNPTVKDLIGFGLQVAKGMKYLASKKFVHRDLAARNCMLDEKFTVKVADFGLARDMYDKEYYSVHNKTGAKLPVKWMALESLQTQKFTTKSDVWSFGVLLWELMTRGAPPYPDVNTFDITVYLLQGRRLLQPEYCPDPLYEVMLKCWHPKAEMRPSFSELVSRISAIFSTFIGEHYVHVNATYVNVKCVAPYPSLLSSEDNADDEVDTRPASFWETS
Description: Competitive inhibition of c-MET phosphorylation (unknown origin) at 25 to 100 nM after 60 mins by Omnia kinase assay
Data set [10] deals with T1, Hepatocyte growth factor receptor. In words: Competitive inhibition of c-MET phosphorylation (unknown origin) after 60 mins by Omnia kinase assay.
For data set [11] the target is unchanged. In words: Inhibition of c-MET phosphorylation (unknown origin) at 10 uM after 1 hr by Z'-LYTE kinase assay.
Data set [12] has as its system MDA-MB-231. In words: Antimigratory activity against human MDA-MB-231 cells at 10 uM after 24 hrs by wound healing assay. Format: functional, cell-based.
Data set [13] concerns MDA-MB-231. Briefly: Antiinvasive activity against human MDA-MB-231 cells at 20 uM after 24 hrs by Cultrex BME assay. Format: functional. The following applies: MDA-MB-231, 24 h.
In data set [14] the test system is MDA-MB-231. Briefly: Antimigratory activity against human MDA-MB-231 cells at 50 uM after 24 hrs by wound healing assay. It counts as functional, cell-based.

In the case of `O=C(NCc1ccccc1)OCCc1ccc(OC(=O)NCc2ccccc2)cc1`, the IC50 in the data set on MDA-MB-231 [1] and in the data set with MDA-MB-231 [3] was > 100 µM each time. Further, the inhibition (in general, how much of the control response was suppressed) in the data set on MDA-MB-231 [2] is “inactive”. For the same compound, the Activity result in the data set with MCF-10A [4] and in the data set on MCF-10A [5] was “Non-toxic” each time.
With `O=C(Cc1ccc(O)c(O)c1)OCCc1ccc(O)cc1`, in the data set with MDA-MB-231 [6], the inhibition entry is “Active”. Moreover, the IC50 – broadly, the point on the concentration scale where inhibition reaches its midpoint – in the data set with MDA-MB-231 [1] is > 100 µM; in the data set on MDA-MB-231 [3] it was 41.6 µM. In addition, the inhibition entry with MDA-MB-231 [2] is “inactive”. Besides, the Activity entry in the data set with MCF-10A [4] and in the data set with MCF-10A [5] was “Non-toxic” in each case.
Turning to `COc1cc(/C=C/C(=O)OCCc2ccc(O)cc2)cc(OC)c1OC`, the inhibition entry in the data set with MDA-MB-231 [6] is “Active”. Besides, the figures for the IC50 with MDA-MB-231 [1] and in the data set with MDA-MB-231 [3] were > 100 µM and 46.7 µM, respectively. In addition, the inhibition entry in the data set with MDA-MB-231 [2] is “inactive”. In addition, the Activity result with MCF-10A [4] and with MCF-10A [5] was “Non-toxic” throughout.
`CCn1cc(C(=O)OCCc2ccc(O)cc2)c(=O)c2ccc(C)nc21`: the Activity in the data set on MDA-MB-231 [7] is listed as 36%; in the data set with MDA-MB-231 [8] it was 60%; in the data set on MCF-10A [4], “Non-toxic”; with MCF-10A [5], “Non-toxic”.
On to `O=C(NCc1ccccc1)OCCc1ccc(O)cc1`, for which the IC50 in the data set on MDA-MB-231 [1] and with MDA-MB-231 [3] was > 100 µM each time. The Activity entry in the data set on MCF-10A [4] and in the data set on MCF-10A [5] was “Non-toxic” throughout.
Consider `Cc1[nH]c(/C=C2\C(=O)Nc3ccc(S(=O)(=O)N(C)c4cccc(Cl)c4)cc32)c(C)c1C(=O)N1CCN(C)CC1`, for which, in data set [9], the inhibition entry is “Active”.
For `Cc1ccc(S(=O)(=O)NC(=O)OCCc2ccc(O)cc2)cc1` [4-HYDROXYPHENETHYL TOSYLCARBAMATE], the half-maximal inhibitory concentration (IC50) in the data set with MDA-MB-231 [1] and in the data set on MDA-MB-231 [3] was > 100 µM throughout. For the same compound, the inhibition result in the data set with MDA-MB-231 [2] was “inactive”. In addition, the Activity result in the data set with MCF-10A [4] and in the data set with MCF-10A [5] was “Non-toxic” each time.
In the case of `C/C=C(/C=O)[C@@H](CC=O)CC(=O)OCCc1ccc(O)cc1` [(-)-OLEOCANTHAL], the inhibition entry in the data set with MDA-MB-231 [2] was “inactive”. In addition, the inhibition entry (in data set [10]; in the data set on MDA-MB-231 [12]) was “Active” each time. The compound further showed an inhibition in data set [11] of 93.4%. For the same compound, the Activity entry in the data set with MCF-10A [4] and in the data set on MCF-10A [5] was “Non-toxic” each time.
`C=C[C@@H]1[C@H](O)OC=C(C(=O)OC)[C@H]1CC(=O)OCCc1ccc(O)cc1` [LIGSTROSIDE AGLYCONE] registered an inhibition at 25 µM with MDA-MB-231 [6] of 60%. Further, the IC50 turned out to be 80.4 µM in the data set with MDA-MB-231 [1] and 13.8 µM in the data set on MDA-MB-231 [3]. Besides, in the data set with MDA-MB-231 [13], the inhibition at 20 µM is > 50%. Besides, the Activity result in the data set on MCF-10A [4] and with MCF-10A [5] was “Non-toxic” in each case.
As to `O=C(/C=C/c1ccc(O)c(O)c1)OCCc1ccc(O)cc1` [TYROSOL CAFFEATE], the IC50 with MDA-MB-231 [1] and in the data set with MDA-MB-231 [3] was > 100 µM each time. The inhibition result in the data set on MDA-MB-231 [2] is “inactive”. The inhibition at 20 µM in the data set with MDA-MB-231 [13] was > 50%. Also, the Activity result in the data set on MCF-10A [4] and with MCF-10A [5] was “Non-toxic” throughout.
Take `COc1cc(CC(=O)OCCc2ccc(O)cc2)ccc1O` [TYROSOL HOMOVANILLATE]: the IC50 in the data set with MDA-MB-231 [1] and in the data set on MDA-MB-231 [3] was > 100 µM each time. In addition, the inhibition result in the data set with MDA-MB-231 [2] is “inactive”. Moreover, the Activity entry in the data set with MCF-10A [4] and in the data set with MCF-10A [5] was “Non-toxic” each time.
For `COc1cc(/C=C/C(=O)OCCc2ccc(O)cc2)cc(OC)c1O` [TYROSOL SINAPATE], in the data set with MDA-MB-231 [6], the inhibition entry is “Active”. Besides, in the data set with MDA-MB-231 [2], the inhibition result is “inactive”. For the same compound, the inhibition at 20 µM in the data set on MDA-MB-231 [13] was > 50%. Besides, the Activity entry in the data set with MCF-10A [4] and with MCF-10A [5] was “Non-toxic” throughout.
Consider `COc1cc(C(=O)OCCc2ccc(O)cc2)cc(OC)c1O` [TYROSOL SYRINGATE], for which 25 µM produced 60% inhibition with MDA-MB-231 [6]. Also, the concentration for half-maximal inhibition (IC50) with MDA-MB-231 [1] is > 100 µM; in the data set with MDA-MB-231 [3] it was 19.4 µM. The inhibition result in the data set with MDA-MB-231 [2] is “inactive”. Also, the Activity result in the data set with MCF-10A [4] and with MCF-10A [5] was “Non-toxic” throughout.
For the compound `OCCc1ccc(O)cc1` [TYROSOL], the inhibition result with MDA-MB-231 [14] is “inactive”. The IC50 in the data set with MDA-MB-231 [1] and with MDA-MB-231 [3] was > 100 µM in each case. For the same compound, the Activity entry with MCF-10A [4] and in the data set on MCF-10A [5] was “Non-toxic” in each case.
